Assay results published in patent publication US20210345609A1, “AMINOCARBOXYLIC ACID CHELATING AGENT WITH ANTIFUNGAL ACTIVITY AND SYNERGISTIC USE THEREOF WITH OTHER STERILANTS” (priority 2020, published 2021).
Values after ≈ are worked out from the molar mass of the structure shown. Read-outs that look alike come from different tables or passages of the source.

Tests used:
Fusarium Fg2021 = test: Indoor in vivo efficacy on Fusarium, wheat coleoptiles; parameters: species or system Fusarium Fg2021 on wheat (Yumai 35) seedlings; details: Fg2021, 7 d, vs control
Description: Seeds of Yumai 35 were sterilized with 0.1% mercury dichloride for 5 min, rinsed with sterile water for 3 times and immersed for 2 h. The seeds were evenly placed in plastic boxes laid with double layers of sterile filter paper with 30 seeds a box. Cultivation was carried out at 25° C. with 90% humidity and a cycle of 12 h light and 12 h dark in a light incubator for 2 d. […] 12 h later, tips of the coleoptiles were cut. Cut wounds were inoculated with 5 μL of 5×10^5 cells/mL Fg2021 spore solution respectively. Cultivation was carried out in the light incubator. 7 d later, length of disease spot was investigated.

Penicillium = test: Hyphae growth rate method (PDA plate method); assay type: cell-based
F. verticilloides = test: Spore germination method, indoor toxicity on Fusarium; assay type: cell-based
wheat scab (Fg2021) = assay type: in vivo; details: wheat at flowering, vs control group
Botrytis cinerea [1] = test: Spore germination method on Botrytis cinerea; assay type: cell-based
F. oxysporum = test: Spore germination method, indoor toxicity on Fusarium; assay type: cell-based
Botrytis cinerea [2] = test: Indoor in vivo efficacy on Botrytis cinerea, cucumber leaves; details: 4 d, vs control
Trichoderma = test: Hyphae growth rate method (PDA plate method); assay type: cell-based
F. solani = test: Spore germination method, indoor toxicity on Fusarium; assay type: cell-based
pathogenic Phytophthora = test: Hyphae growth rate method (PDA plate method); assay type: cell-based
Text: Step 1): Setting of concentration gradients of drugs.
Step 2): Determination of EC50 values of drugs against pathogenic Phytophthora with a hyphae growth rate method (PDA plate method)

Pyricularia oryzae = test: microbe, parasite or virus in culture; assay type: cell-based
F. asiaticum = test: Spore germination method, indoor toxicity on Fusarium; assay type: cell-based
Description: Experimental methods and specific experimental steps for indoor toxicology determination of Fusarium were as follows:
Step (1): Collection of spores. Five plates (5 mm) evenly distributed on the edge of a medium for Fusarium cultured at 25° C. for 3 d were taken and placed in the CMC medium. After culture under shaking at 175 rpm and 25° C. for 5 d, a filtrate was collected with three layers of sterile lens-cleaning paper. Centrifuging was carried out at 10,000 rpm for 10 min. Washing was carried out twice with sterile water (10,000 rpm, 10 min/time). A spore concentration was adjusted to 1×10^4 ml^1.
Step (2): Setting of concentration gradients of drugs. […] Drugs and spore solutions were mixed, drawn to a cell culture plate and incubated in a thermostat incubator at 25° C. for a period of time.
Step (3): Investigation results and statistical analysis. When a spore germination rate of control group was >90%, spore germination was observed and analyzed statistically.
Spore germination rate (%)=number of germinated spores/number of inspected spores×100
Corrected germination rate (%)=(germination rate for control−germination rate for treatment)/([…])×100

F. graminearum = test: microbe, parasite or virus in culture; assay type: cell-based
Pyricularia oryzae Guy11 = assay type: in vivo, Pyricularia oryzae Guy 11 on barley leaves; details: Guy11, 6 d
[3] = 7.5 mM sprayed on wheat coleoptiles
[4] = 15 μM sprayed on wheat coleoptiles

For `O=C(O)CN(CCN(CC(=O)O)CC(=O)O)CC(=O)O` [EDTA, ethylenediaminetetraacetic acid], the “length of disease spot” value (Fusarium Fg2021; [3]) was “significantly shorter disease spots”, the EC50 (Penicillium) was 3.15 µg/mL (≈ 10.8 µM) and the EC50 (F. verticilloides) was 19 µg/mL (≈ 65.1 µM). For the same compound, the “disease of wheat ears (diseased spikelets)” value (“disease of wheat ears” below) (wheat scab (Fg2021); 7 g ha^−1, field) was “significantly lighter disease”, the EC50 (Botrytis cinerea [1]) was 1.63 µg/mL (≈ 5.58 µM) and the EC50 (F. oxysporum; Fusarium oxysporum) was 17.7 µg/mL (≈ 60.5 µM). The disease spots (Botrytis cinerea [2]; 25 mM sprayed on cucumber leaves) was “significantly shorter disease spots”, the EC50 (Trichoderma) was 6.12 µg/mL (≈ 20.9 µM) and the EC50 (F. solani; Fusarium solani) was 17.5 µg/mL (≈ 59.9 µM). The EC50 (pathogenic Phytophthora; read-out: EC50) was 18.2 µg/mL (≈ 62.4 µM), the EC50 (Pyricularia oryzae) was 9.75 µg/mL (≈ 33.4 µM) and the EC50 (F. asiaticum; read-out: EC50) was 8.76 µg/mL (≈ 30 µM). It also gave an EC50 (F. graminearum; Fusarium graminearum) of 17.8 µg/mL (≈ 60.8 µM).

In the case of `O=C([O-])CN(CCN(CC(=O)[O-])CC(=O)[O-])CC(=O)[O-].[Na+].[Na+].[Na+].[Na+]` [EDTANa4], the “length of disease spot” value (Fusarium Fg2021; [3]) was “significantly shorter disease spots” and the EC50 (Pyricularia oryzae) was 9.01 µg/mL.

`COC(=O)Nc1nc2ccccc2[nH]1` [carbendazim, reference compound] was tested, and the “disease of wheat ears” value (wheat scab (Fg2021); 140 g ha^−1, field) was “significantly lighter disease”.

With `O=C([O-])CN(CCN(CC(=O)[O-])CC(=O)[O-])CC(=O)[O-].[Mg+2].[Mg+2]` [EDTAMg2] the disease spots (Botrytis cinerea [2]; 30 mM sprayed on cucumber leaves) was “significantly shorter disease spots”.

With `O=C([O-])CN(CCN(CC(=O)[O-])CC(=O)O)CC(=O)[O-].[Na+].[Na+].[Na+]` [EDTANa3] the EC50 (pathogenic Phytophthora) was 17.56 µg/mL.

For `O=C([O-])CN(CCN(CC(=O)[O-])CC(=O)[O-])CCN(CC(=O)[O-])CC(=O)[O-].[Na+].[Na+].[Na+].[Na+].[Na+]` [DTPANa5], the “length of disease spot” value (Fusarium Fg2021; [4]) was “significantly shorter disease spots” and the EC50 (Pyricularia oryzae) was 9.32 µg/mL.

`O=C(O)CN(CCN(CC(=O)O)CC(=O)O)CCN(CC(=O)O)CC(=O)O` [DTPA, diethylenetriaminepentaacetic acid] was tested, and the “length of disease spot” value (Fusarium Fg2021; [4]) was “significantly shorter disease spots”, the EC50 (Penicillium; hyphae growth rate) was 4.3704 µg/mL (≈ 11.1 µM) and the EC50 (F. verticilloides; F. verticilloides, spore germination) was 18.82 µg/mL (≈ 47.8 µM). The “disease of wheat ears” value (wheat scab (Fg2021); 7 g ha^−1, field) was “significantly lighter disease”, the EC50 (Botrytis cinerea [1]; spore germination) was 1.85 µg/mL (≈ 4.7 µM) and the EC50 (F. oxysporum; F. oxysporum, spore germination) was 17.77 µg/mL (≈ 45.2 µM). The disease spots (Botrytis cinerea [2]; 10 mM sprayed on cucumber leaves) was “significantly shorter disease spots”, the EC50 (Trichoderma; hyphae growth rate) was 7.6421 µg/mL (≈ 19.4 µM) and the EC50 (F. solani; F. solani, spore germination) was 17.80 µg/mL (≈ 45.3 µM). The EC50 (pathogenic Phytophthora) was 20.35 µg/mL (≈ 51.7 µM), the EC50 (Pyricularia oryzae) was 9.45 µg/mL (≈ 24 µM) and the EC50 (F. asiaticum) was 8.76 µg/mL (≈ 22.3 µM). The EC50 (F. graminearum; F. graminearum, spore germination) was 16.22 µg/mL (≈ 41.2 µM).

With `O=C([O-])CN(CCN(CC(=O)[O-])CC(=O)O)CC(=O)O.[Na+].[Na+]` [EDTANa2] the EC50 (Botrytis cinerea [1]; spore germination) was 1.12 µg/mL, the disease spots (Pyricularia oryzae Guy11; 30 mM sprayed on barley leaves) was “significantly reduced disease spots” and the EC50 (pathogenic Phytophthora) was 19.39 µg/mL.

`O=C([O-])CN(CCN(CC(=O)[O-])CC(=O)[O-])CCN(CC(=O)[O-])CC(=O)[O-].[H+].[H+].[Na+].[Na+].[Na+]` [DTPANa3] was tested, and the EC50 (Botrytis cinerea [1]; spore germination) was 1.88 µg/mL and the disease spots (Pyricularia oryzae Guy11; 10 mM sprayed on barley leaves) was “significantly reduced disease spots”.
